# Patent publication US20250041249A1, “METHOD OF TREATING LIVER STEATOSIS WITH BIOAVAILABLE FORMULATION OF OLEOYLETHANOLAMIDE” (THE REGENTS OF THE UNIVERSITY OF CALIFORNIA, priority 2021, published 2025)
# What was measured:
# liver of HFD-fed mice = assay: Subchronic i.p. OEA in HFD-fed mice: liver lipid accumulation (Oil Red O, BODIPY, triglyceride kit); format: in vivo, mouse; conditions: OEA 5 mg/kg i.p. once daily 6 weeks, versus vehicle controls
# Procedure: 18-week-old mice were randomized into two groups; one received standard chow (6.5% kcal fat, Envigo 2020X, Livermore, CA) and the other a high-fat diet (HFD, 60% kcal fat, D12492, Research Diets, New Brunswick, NJ). Both were available ad libitum for 11 weeks. Body weight and food intake were recorded three times per week. Animals from both groups were randomly assigned to three cohorts: a) free feeding, b) fasting (from 6:00 pm to 12:00 pm on the following day) and c) fasting/refeeding (2 hr access to food after fasting). Mice assigned to the fasting and fasting/refeeding groups were housed in bottom-wired cages to prevent coprophagia. OEA was dissolved in a vehicle of 95% saline/5% Tween80 (v/v) shortly before experiments. It was administered by intraperitoneal (i.p.) injection at 5 mg/kg in a volume of 10 ml/kg. Liver triglycerides were quantified using a colorimetric assay kit (Cayman Chemicals). Briefly, ˜30 mg of right liver lobe were mixed with 0.2 mL of assay buffer and processed following manufacturer's instructions. Oil Red O Staining: We embedded liver samples in a mold, cut them into 7-μm thick sections with a cryostat and fixed them with 4% paraformaldehyde (PFA) for 15 min. After fixation, we immersed the sections in phosphate-buffered saline (PBS) for 2 min, placed them in isopropanol (60%) for 2 min, and incubated them with Oil Red O (60% in isopropanol) for 30 min. […]
# PPAR-α [1] = molecular target: T1, PPAR-α (Homo sapiens, UniProt Q07869); conditions: read-out: affinity constant, KD; cited from earlier work
# T1 sequence (Q07869 1-468): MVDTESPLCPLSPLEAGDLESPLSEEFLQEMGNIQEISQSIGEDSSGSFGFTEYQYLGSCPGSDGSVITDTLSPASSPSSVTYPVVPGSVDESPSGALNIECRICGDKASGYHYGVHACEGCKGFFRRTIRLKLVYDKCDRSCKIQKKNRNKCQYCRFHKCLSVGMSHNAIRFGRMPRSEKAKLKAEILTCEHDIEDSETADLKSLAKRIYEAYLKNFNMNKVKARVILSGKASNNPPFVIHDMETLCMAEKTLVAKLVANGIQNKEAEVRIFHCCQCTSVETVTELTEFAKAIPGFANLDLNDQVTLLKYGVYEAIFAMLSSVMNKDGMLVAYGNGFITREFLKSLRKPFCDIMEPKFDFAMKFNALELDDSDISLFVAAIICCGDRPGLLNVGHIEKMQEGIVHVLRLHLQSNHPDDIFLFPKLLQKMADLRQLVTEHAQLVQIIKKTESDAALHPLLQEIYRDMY
# HFD-fed mice = assay: Subchronic i.p. OEA in HFD-fed mice: body weight gain and blood chemistry; format: in vivo, mouse; conditions: OEA 5 mg/kg i.p. once daily for 6 weeks, mean ± S.E.M
# Procedure: 18-week-old mice were randomized into two groups; one received standard chow (6.5% kcal fat, Envigo 2020X, Livermore, CA) and the other a high-fat diet (HFD, 60% kcal fat, D12492, Research Diets, New Brunswick, NJ). Both were available ad libitum for 11 weeks. Body weight and food intake were recorded three times per week. Animals from both groups were randomly assigned to three cohorts: a) free feeding, b) fasting (from 6:00 pm to 12:00 pm on the following day) and c) fasting/refeeding (2 hr access to food after fasting). Mice assigned to the fasting and fasting/refeeding groups were housed in bottom-wired cages to prevent coprophagia. OEA was dissolved in a vehicle of 95% saline/5% Tween80 (v/v) shortly before experiments. It was administered by intraperitoneal (i.p.) injection at 5 mg/kg in a volume of 10 ml/kg. A comprehensive blood chemistry panel was performed at Antech Diagnostics (Irvine, CA). Diet-induced obesity is associated with the development of liver steatosis and fibrosis. We asked whether OEA supplementation might correct these alterations in HFD-fed mice, which are defective in endogenous OEA production. We exposed mice to HFD for 5 weeks, randomized them into two groups, and treated them either with OEA (5 mg/kg, once daily) or vehicle for 6 additional weeks of HFD exposure. As expected, OEA administration reduced body weight gain and lowered circulating total cholesterol and liver transaminase levels (Table 2, FIG. 5). These effects were accompanied by improvement in hepatic lipid profile (FIG. 3). […] Transcription of other relevant genes (Nrf1, Tnfa, Tgf1b, Nqo1) was not affected (FIG. 3h-j).
# [2] = test system: liver inflammation and fibrosis genes; assay: Subchronic i.p. OEA in HFD-fed mice: liver gene transcription (real time PCR); format: in vivo, mouse; conditions: OEA 5 mg/kg i.p. once daily 6 weeks, versus vehicle controls
# Procedure: 18-week-old mice were randomized into two groups; one received standard chow (6.5% kcal fat, Envigo 2020X, Livermore, CA) and the other a high-fat diet (HFD, 60% kcal fat, D12492, Research Diets, New Brunswick, NJ). Both were available ad libitum for 11 weeks. Body weight and food intake were recorded three times per week. Animals from both groups were randomly assigned to three cohorts: a) free feeding, b) fasting (from 6:00 pm to 12:00 pm on the following day) and c) fasting/refeeding (2 hr access to food after fasting). Mice assigned to the fasting and fasting/refeeding groups were housed in bottom-wired cages to prevent coprophagia.
# OEA was dissolved in a vehicle of 95% saline/5% Tween80 (v/v) shortly before experiments. It was administered by intraperitoneal (i.p.) injection at 5 mg/kg in a volume of 10 ml/kg.
# We extracted total RNA from liver using TRIzol™ reagent (Thermo Fisher Scientific, Waltham, MS) and purified it with the PureLink™ RNA Mini Kit (Invitrogen, Waltham, MS) as directed by the supplier. Prior to purification, samples were passed through a gDNA Eliminator spin column (Qiagen, Germantown, CA). We quantified RNA using NanoDrop 2000/2000-c spectrophotometer (Thermo Fisher Scientific). cDNA was synthesized from […] of total RNA using the High-Capacity cDNA RT Kit with RNase inhibitor (Applied BioSystems, Foster City, CA) following manufacturer's instructions. First-strand cDNA was amplified using TaqMan™ Universal PCR Master Mixture (Thermo Fisher Scientific) Real-time PCR reactions were performed in 96-well plates using the CFX96™ Real-Time System (Bio-Rad, Hercules, CA). The thermal cycling conditions were as follows: initial denaturation set at 95° C. for 10 min, followed by 45 cycles, where each cycle was performed at 95° C. for 30 s followed by 55° C. for 60 s. ΔCt values were calculated using the geometric mean of three different housekeeping genes, and the relative fold changes over control groups (chow-free feed) were calculated by the 2-44Ct method. Real-time PCR primers and fluorogenic probes were purchased from Applied Biosystems (TaqMan (R) Gene Expression Assays, Foster City, CA). We used TaqMan gene expression assays for mouse Actb (Mm00607939_s1), Hprt (Mm00446968_m1), Gapdh (Mm99999915_g1), Tnfa (Mm00443258_m1), Il1b (Mm00434228_m1), Tgfb1 (Mm_01178820_m1), Ccl2 (Mm_00441242_m1) Hmox1 (Mm_00516005_m1), Col1a1 (Mm_00801666_g1), Nqo1 (Mm_01135606_m1), Nrf1 (Mm01135606_m1), Faah (Mm_00515684_m1), and NapepId (Mm_00724596_m1) (Applied Biosystems, Foster City, CA).
# Diet-induced obesity is associated with the development of liver steatosis and fibrosis. We asked whether OEA supplementation might correct these alterations in HFD-fed mice, which are defective in endogenous OEA production. We exposed mice to HFD for 5 weeks, randomized them into two groups, and treated them either with OEA (5 mg/kg, once daily) or vehicle for 6 additional weeks of HFD exposure. As expected, OEA administration reduced body weight gain and lowered circulating total cholesterol and liver transaminase levels (Table 2, FIG. 5). These effects were accompanied by improvement in hepatic lipid profile (FIG. 3). […] Transcription of other relevant genes (Nrf1, Tnfa, Tgf1b, Nqo1) was not affected (FIG. 3h-j).
# PPAR-α [3] = molecular target: T1, PPAR-α; conditions: PPAR-α agonist; read-out: median effective concentration, EC50; cited from earlier work
structure (smiles),measurement,setting,value
"CCCCCCCC/C=C\CCCCCCCC(=O)NCCO [OEA, oleoylethanolamide]",liver lipid content (Oil Red O and BODIPY staining of liver sections),liver of HFD-fed mice,reduced
same,liver triglyceride content,liver of HFD-fed mice,lower
same,Kd,PPAR-α [1],~0.04 µM
same,A Body weight,HFD-fed mice,2.27 ± 0.5 g
same,ALT (SPGT),HFD-fed mice,45.4 ± 6.9 IU/L
same,AST (SGOT),HFD-fed mice,86.1 ± 9.9 IU/L
same,Cholesterol,HFD-fed mice,173.6 ± 7.6 mg/dL
same,Glucose,HFD-fed mice,250.5 ± 19.1 mg/dL
same,Triglyceride,HFD-fed mice,81.0 ± 4.9 mg/dL
same,liver transcription of C-C Motif Chemokine Ligand 2 (Ccl2),[2],attenuated
same,liver transcription of Nqo1,[2],not affected
same,liver transcription of Nrf1,[2],not affected
same,liver transcription of Tgf1b,[2],not affected
same,liver transcription of Tnfa,[2],not affected
same,liver transcription of collagen type I a1 (Col1a1),[2],attenuated
same,liver transcription of heme oxygenase 1 (Hmox1),[2],enhanced
same,liver transcription of interleukin 1B (1/1b),[2],attenuated
same,EC50,PPAR-α [3],~0.12 µM
